Assay [1] relates to phosphorylation of Serine 473 in Akt, MDA-MB-468 cells. Nature of the assay: In vitro phospho-Ser473 Akt assay. It counts as cell-based. The following applies: Homo sapiens, MDA-MB-468, Test (c), mean of five occasions, read-out: IC50 versus Serine 473 in Akt, mean value. The procedure:
(c) In Vitro Phospho-Ser473 Akt Assay
This assay determines the ability of test compounds to inhibit phosphorylation of Serine 473 in Akt as assessed using Acumen Explorer technology (Acumen Bioscience Limited), a plate reader that can be used to rapidly quantitate features of images generated by laser-scanning.
A MDA-MB-468 human breast adenocarcinoma cell line (LGC Promochem, Teddington, Middlesex, UK, Catalogue No. HTB-132) was routinely maintained at 37° C. with 5% CO2 up to a confluency of 70-90% in DMEM containing 10% heat-inactivated FCS and 1% L-glutamine.
For the assay, the cells were detached from the culture flask using ‘Accutase’ (Innovative Cell Technologies Inc., San Diego, Calif., USA; Catalogue No. AT104) using standard tissue culture methods and resuspended in media to give 1.7×10^5 cells per mL. Aliquots (90 μl) were seeded into each of the inner 60 wells of a black Packard 96 well plate (PerkinElmer, Boston, Mass., USA; Catalogue No. 6005182) to give a density of ˜15000 cells per well. […]
No. 10010015). […] An aliquot of PBS (50 μl) was added to each well and the plates were sealed with black plate sealers and the fluorescence signal was detected and analysed.
Fluorescence dose response data obtained with each compound were analysed and the degree of inhibition of Serine 473 in Akt was expressed as an IC50 value.

The next assay concerns the target T1, p110α Type Ia human PI3K (Homo sapiens, UniProt P42336).
T1 construct: full length DNA of each of the p110α, p110β and p110δ Type Ia human PI3K p110 isoforms; 6-His; made in house
Nature of the assay: In vitro PI3K enzyme assay (AlphaScreen), p110α. It counts as biochemical. The following applies: Test (b). The source says:
(b) In Vitro PI3K Enzyme Assay
The assay used AlphaScreen technology (Gray et al., Analytical Biochemistry, 2003, 313: 234-245) to determine the ability of test compounds to inhibit phosphorylation by recombinant Type I PI3K enzymes of the lipid PI(4,5)P2.
DNA fragments encoding human PI3K catalytic and regulatory subunits were isolated from cDNA libraries using standard molecular biology and PCR cloning techniques. The selected DNA fragments were used to generate baculovirus expression vectors. In particular, full length DNA of each of the p110α, p110β and p110δ Type Ia human PI3K p110 isoforms (EMBL Accession Nos. HSU79143, S67334, Y10055 for p110 α, p110β and p110δ respectively) were sub-cloned into a pDEST10 vector (Invitrogen Limited, Fountain Drive, Paisley, UK). The vector is a Gateway-adapted version of Fastbac1 containing a 6-His epitope tag. A truncated form of Type Ib human PI3K p110γ isoform corresponding to amino acid residues 144-1102 (EMBL Accession No. X8336A) and the full length human p85α regulatory subunit (EMBL Accession No. HSP13KIN) were also sub-cloned into pFastBac1 vector containing a 6-His epitope tag. The Type Ia p110 constructs were co-expressed with the p85α regulatory subunit. […]
20 hours at room temperature in the dark. The resultant signals arising from laser light excitation at 680 nm were read using a Packard AlphaQuest instrument. […]
For orientation: Bead proximity is the source of the signal in Alpha formats.

In the next assay the target is T2, recombinant mTOR (Homo sapiens, UniProt P42345).
T2 construct: FLAG; made in house
T2 sequence (P42345 1362-2549): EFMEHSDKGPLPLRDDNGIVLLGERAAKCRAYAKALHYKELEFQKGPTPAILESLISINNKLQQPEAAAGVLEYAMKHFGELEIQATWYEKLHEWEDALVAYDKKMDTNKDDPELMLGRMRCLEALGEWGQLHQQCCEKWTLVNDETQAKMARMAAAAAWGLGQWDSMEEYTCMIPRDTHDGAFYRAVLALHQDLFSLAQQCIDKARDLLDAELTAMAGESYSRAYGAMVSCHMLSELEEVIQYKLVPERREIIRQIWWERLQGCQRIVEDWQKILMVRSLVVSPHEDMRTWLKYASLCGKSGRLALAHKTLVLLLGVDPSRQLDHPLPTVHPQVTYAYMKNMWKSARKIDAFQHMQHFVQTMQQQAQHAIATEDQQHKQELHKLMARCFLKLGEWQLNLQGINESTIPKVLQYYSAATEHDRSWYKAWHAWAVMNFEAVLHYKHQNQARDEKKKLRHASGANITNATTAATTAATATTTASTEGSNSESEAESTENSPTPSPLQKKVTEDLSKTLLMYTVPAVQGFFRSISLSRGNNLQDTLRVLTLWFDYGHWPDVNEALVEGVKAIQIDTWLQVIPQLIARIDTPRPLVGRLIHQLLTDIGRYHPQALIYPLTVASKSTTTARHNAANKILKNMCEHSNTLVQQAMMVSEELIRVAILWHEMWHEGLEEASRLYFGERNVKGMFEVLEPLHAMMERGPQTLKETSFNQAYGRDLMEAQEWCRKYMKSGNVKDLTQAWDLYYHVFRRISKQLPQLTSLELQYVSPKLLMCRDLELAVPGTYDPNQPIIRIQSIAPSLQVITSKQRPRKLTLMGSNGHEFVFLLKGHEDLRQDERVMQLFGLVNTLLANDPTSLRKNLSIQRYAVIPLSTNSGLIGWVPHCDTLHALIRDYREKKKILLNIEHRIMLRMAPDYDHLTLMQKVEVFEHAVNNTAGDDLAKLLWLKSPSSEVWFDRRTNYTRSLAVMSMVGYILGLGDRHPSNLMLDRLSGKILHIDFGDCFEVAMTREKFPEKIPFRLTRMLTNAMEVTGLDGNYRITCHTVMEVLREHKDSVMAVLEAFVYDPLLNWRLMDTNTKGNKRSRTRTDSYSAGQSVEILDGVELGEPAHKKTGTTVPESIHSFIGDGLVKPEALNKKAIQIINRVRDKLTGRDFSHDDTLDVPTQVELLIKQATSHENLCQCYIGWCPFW
Nature of the assay: In vitro mTOR kinase assay (AlphaScreen). The format is biochemical. The following applies: Test (a). Here is the method:
(a) In Vitro mTOR Kinase Assay
The assay used AlphaScreen technology (Gray et al., Analytical Biochemistry, 2003, 313: 234-245) to determine the ability of test compounds to inhibit phosphorylation by recombinant mTOR.
The HEK293 FLAG-tagged mTOR (1362-2549) stable cell line was routinely maintained at 37° C. with 5% CO2 up to a confluency of 70-90% in Dulbecco's modified Eagle's growth medium (DMEM; Invitrogen Limited, Paisley, UK Catalogue No. 41966-029) containing 10% heat-inactivated foetal calf serum (FCS; Sigma, Poole, Dorset, UK, Catalogue No. F0392), 1% L-glutamine (Gibco, Catalogue No. 25030-024) and 2 mg/ml Geneticin
(G418 sulfate; Invitrogen Limited, UK Catalogue No. 10131-027). […]
Each reaction was stopped by the addition of 10 μl of a mixture of EDTA (50 mM), bovine serum albumin (BSA; 0.5 mg/mL) and Tris-HCl pH7.4 buffer (50 mM) containing p70 S6 Kinase (T389) 1A5 Monoclonal Antibody (Cell Signalling Technology, Catalogue No. 9206B) and AlphaScreen Streptavidin donor and Protein A acceptor beads (200 ng; Perkin Elmer, Catalogue No. 6760002B and 6760137R respectively) were added and the assay plates were left for about 20 hours at room temperature in the dark. The resultant signals arising from laser light excitation at 680 nm were read using a Packard Envision instrument. […]
mTOR enzyme inhibition for a given test compound was expressed as an IC50 value.

pIC50: −log10 of the molar value. “And” between values parts separate entries of the source, which are not always exact repeats. Equal entries are not always repeated. Where two headings read alike, the source gives them in different places.

T1 sequence (P42336 whole entry, canonical isoform): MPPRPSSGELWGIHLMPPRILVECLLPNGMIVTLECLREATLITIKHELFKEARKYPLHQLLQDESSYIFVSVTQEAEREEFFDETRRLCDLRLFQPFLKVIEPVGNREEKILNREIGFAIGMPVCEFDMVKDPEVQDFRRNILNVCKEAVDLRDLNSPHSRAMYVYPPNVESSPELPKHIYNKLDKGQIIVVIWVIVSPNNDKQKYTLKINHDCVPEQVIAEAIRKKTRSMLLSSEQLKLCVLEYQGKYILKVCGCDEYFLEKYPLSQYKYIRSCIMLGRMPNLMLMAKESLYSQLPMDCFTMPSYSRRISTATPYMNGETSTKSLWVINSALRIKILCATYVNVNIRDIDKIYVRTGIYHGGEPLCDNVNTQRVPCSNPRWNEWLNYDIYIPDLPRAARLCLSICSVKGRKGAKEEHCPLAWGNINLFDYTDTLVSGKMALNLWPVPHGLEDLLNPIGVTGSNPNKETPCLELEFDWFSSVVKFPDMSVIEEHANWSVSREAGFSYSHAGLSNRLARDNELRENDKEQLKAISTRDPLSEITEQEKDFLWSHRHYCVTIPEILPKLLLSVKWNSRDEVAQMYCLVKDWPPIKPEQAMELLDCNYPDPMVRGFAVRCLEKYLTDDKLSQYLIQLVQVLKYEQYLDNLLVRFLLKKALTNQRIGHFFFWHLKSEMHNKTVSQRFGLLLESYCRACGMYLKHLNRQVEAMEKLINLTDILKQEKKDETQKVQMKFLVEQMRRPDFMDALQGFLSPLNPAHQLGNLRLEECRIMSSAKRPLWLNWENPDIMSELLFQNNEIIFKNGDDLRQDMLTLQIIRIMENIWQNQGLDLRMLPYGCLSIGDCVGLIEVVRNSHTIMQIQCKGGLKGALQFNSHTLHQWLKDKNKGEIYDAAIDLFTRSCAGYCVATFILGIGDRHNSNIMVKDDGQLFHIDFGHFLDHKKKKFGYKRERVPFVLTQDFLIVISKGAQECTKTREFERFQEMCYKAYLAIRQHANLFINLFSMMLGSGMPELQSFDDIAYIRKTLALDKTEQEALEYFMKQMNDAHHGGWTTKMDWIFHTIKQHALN
T1 sequence (P27986 whole entry partner, canonical isoform): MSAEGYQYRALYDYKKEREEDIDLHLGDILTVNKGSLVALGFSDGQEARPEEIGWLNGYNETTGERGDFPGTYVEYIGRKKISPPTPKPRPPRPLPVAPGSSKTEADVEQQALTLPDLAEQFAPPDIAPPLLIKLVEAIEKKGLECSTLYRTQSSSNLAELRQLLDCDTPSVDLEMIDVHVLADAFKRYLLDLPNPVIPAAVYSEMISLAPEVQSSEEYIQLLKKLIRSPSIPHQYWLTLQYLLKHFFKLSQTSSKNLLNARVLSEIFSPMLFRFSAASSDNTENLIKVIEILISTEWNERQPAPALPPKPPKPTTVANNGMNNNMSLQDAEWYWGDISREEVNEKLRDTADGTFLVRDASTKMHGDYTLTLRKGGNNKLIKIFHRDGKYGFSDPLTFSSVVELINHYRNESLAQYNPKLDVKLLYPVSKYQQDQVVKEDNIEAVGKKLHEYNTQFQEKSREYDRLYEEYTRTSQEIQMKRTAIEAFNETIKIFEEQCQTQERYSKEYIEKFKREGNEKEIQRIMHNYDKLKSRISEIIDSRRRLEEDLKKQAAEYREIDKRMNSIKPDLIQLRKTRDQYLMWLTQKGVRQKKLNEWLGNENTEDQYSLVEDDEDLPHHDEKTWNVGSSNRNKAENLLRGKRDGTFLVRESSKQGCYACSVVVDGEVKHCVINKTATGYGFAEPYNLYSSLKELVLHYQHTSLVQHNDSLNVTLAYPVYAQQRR

By pIC50 is commonly meant −log10 of the IC50, conventionally taken in molar units. As for `O=S(=O)(Cc1cc(N2CCOCC2)nc(-c2ccccn2)n1)c1ccccc1` [Example 44, 4-(benzenesulfonylmethyl)-6-morpholin-4-yl-2-pyridin-2-yl-pyrimidine], the pIC50 in assay [1] was 5.05.
As to `O=S(=O)(CCc1cccc(C(F)(F)F)c1)Cc1cc(N2CCOCC2)nc(-c2ccccn2)n1` [Example 65, 4-morpholin-4-yl-2-pyridin-2-yl-6-[2-[3-(trifluoromethyl)phenyl]ethylsulfonylmethyl] pyrimidine], the pIC50 on p110α Type Ia human PI3K (mean of three occasions, read-out: IC50 versus p110α Type Ia human PI3K, mean value) was 5.17; at p110α Type Ia human PI3K (single occasions, read-out: IC50 versus p110α Type Ia human PI3K), 5.72 and 4.89 and 5.24; at recombinant mTOR (mean of three occasions, read-out: IC50 versus mTOR kinase, mean value), 5.27; at recombinant mTOR (single occasions, read-out: IC50 versus mTOR kinase), 5.41 and 5.39 and 5.09.
